Assay results reported in ChEMBL document CHEMBL1201862, “PubChem BioAssay data set” (2004).
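A five-concentration, 48-hour dose response in 96-well plates underlies each endpoint, interpolated linearly between surrounding concentrations. GI50 = concentration required for 50% inhibition of growth.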 The source made the active and inactive calls. Cut-off read from the data, not from the text of the source: active = GI50 up to about 1.1 µM and inactive = higher.

How the values were obtained:
Assay in all cases: inhibition of tumour cell growth, NCI panel, 48 h
TK-10 = tested on: TK-10
KM12 = tested on: KM12
IGROV-1 = tested on: IGROV-1
HCT-116 = tested on: HCT-116
NCI-H460 = tested on: NCI-H460
SW-620 = tested on: SW-620
UACC-257 = tested on: UACC-257
EKVX = tested on: EKVX
Malme-3M = tested on: Malme-3M
SK-MEL-5 = tested on: SK-MEL-5
SNB-19 = tested on: SNB-19
OVCAR-8 = tested on: OVCAR-8
SN12C = tested on: SN12C
SF-268 = tested on: SF-268
U-251 = tested on: U-251
HOP-62 = tested on: HOP-62
OVCAR-5 = tested on: OVCAR-5
A549 = tested on: A549
RXF 393 = tested on: RXF 393

Measured: GI50

COc1ccc(C(=O)C(C(=O)C(=O)NC2C3CC4CC(C3)CC2C4)c2ccc(OC)cc2)cc1 (stereo not drawn)
inactive: TK-10 > 100 µM | KM12 > 100 µM | IGROV-1 > 100 µM | HCT-116 > 100 µM | NCI-H460 > 100 µM | SW-620 > 100 µM | UACC-257 > 100 µM | EKVX > 100 µM | Malme-3M > 100 µM | SK-MEL-5 > 100 µM | SNB-19 > 100 µM | OVCAR-8 > 100 µM | SN12C > 100 µM | SF-268 > 100 µM | U-251 > 100 µM | HOP-62 > 100 µM | OVCAR-5 > 100 µM | A549 > 100 µM

C=CC1(C)CCC2=C(CCC3C(C)(C(=O)OC)CCCC23C)C1=O (stereo not drawn)
inactive: TK-10 19.9 µM | KM12 17.4 µM | IGROV-1 18.9 µM | HCT-116 17.3 µM | NCI-H460 18.3 µM | SW-620 17.6 µM | UACC-257 22.8 µM | EKVX 18.7 µM | Malme-3M 17.9 µM | SK-MEL-5 16.7 µM | SNB-19 38.4 µM | OVCAR-8 29.8 µM | SN12C 19 µM | SF-268 18.7 µM | U-251 15.6 µM | HOP-62 16.8 µM | OVCAR-5 16 µM

COC(=O)C1=C(C)N2CCOC2CC1c1ccccc1 (stereo not drawn)
inactive: TK-10 > 100 µM | KM12 > 100 µM | RXF 393 48.6 µM | IGROV-1 > 100 µM | HCT-116 > 100 µM | NCI-H460 > 100 µM | SW-620 > 100 µM | UACC-257 > 100 µM | EKVX > 100 µM | SK-MEL-5 > 100 µM | SNB-19 > 100 µM | OVCAR-8 > 100 µM | SF-268 > 100 µM | HOP-62 > 100 µM | A549 > 100 µM

COc1cc(OC2OC(CO)C(O)C(O)C2O)c2c(O)c3c(=O)cc(C)oc3cc2c1 (stereo not drawn)
inactive: TK-10 > 100 µM | KM12 > 100 µM | IGROV-1 > 100 µM | HCT-116 > 100 µM | NCI-H460 > 100 µM | SW-620 > 100 µM | UACC-257 > 100 µM | EKVX > 100 µM | Malme-3M 67.1 µM | SK-MEL-5 > 100 µM | SNB-19 > 100 µM | OVCAR-8 > 100 µM | SF-268 64.3 µM | U-251 > 100 µM | HOP-62 > 100 µM | OVCAR-5 > 100 µM | A549 > 100 µM

CC(=O)Nc1ccc(C(=O)NN2C(=O)C(Cl)C2c2cccc([N+](=O)[O-])c2)cc1 (stereo not drawn)
inactive: TK-10 > 100 µM | KM12 > 100 µM | IGROV-1 > 100 µM | HCT-116 > 100 µM | NCI-H460 > 100 µM | SW-620 > 100 µM | UACC-257 > 100 µM | Malme-3M > 100 µM | SK-MEL-5 > 100 µM | SNB-19 > 100 µM | OVCAR-8 > 100 µM | SF-268 > 100 µM | U-251 > 100 µM | HOP-62 > 100 µM | OVCAR-5 > 100 µM | A549 > 100 µM

Clc1cc2nsnc2c(Cl)n1
inactive: TK-10 20.9 µM | KM12 47.2 µM | IGROV-1 26.2 µM | NCI-H460 38.5 µM | SW-620 10.2 µM | UACC-257 26.7 µM | EKVX > 100 µM | Malme-3M 16.3 µM | SK-MEL-5 16.9 µM | SNB-19 19 µM | SF-268 26.4 µM | U-251 20.3 µM | HOP-62 > 100 µM | OVCAR-5 43 µM | A549 50 µM
